Experimental data reported in patent publication US8471005B2 (Cephalon, Inc., priority 2008, dated 2013).
Where two headings read alike, the source gives them in different places.

Columns and labels:
JAK2 = target: T1, JAK2 (Homo sapiens, UniProt O60674); assay: Recombinant Human JAK2 Kinase Assay (TRF); assay type: biochemical; details: read-out: JAK2 Potency
T1 construct: host or cells: baculovirus expression system
In short: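 Europium-labelled PY100 antibody reported tyrosine phosphorylation of a Neutravidin-captured biotinyl 15-mer peptide by JAK2 (baculovirus-expressed, 15 ng/ml). Conditions: 20 mM HEPES pH 7.2, 0.2 μM ATP, 1 mM MnCl2, 0.1% BSA, DMSO 2.5% final, 20 min at room temperature.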

ALK = target: T2, ALK (Homo sapiens, UniProt Q9UM73); assay: ALK Kinase Assay (ELISA/TRF, PLC-γ substrate); assay type: biochemical; details: read-out: ALK Potency
T2 construct: host or cells: baculovirus expression system
In short: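 Wells were coated with 10 μg/mL phospholipase C-γ substrate in TBS, and the reaction was started by adding 30 ng/ml ALK enzyme and run at 37° C for 15 minutes. Phosphorylated product was detected with Eu-N1-labeled PT66 antibody, and IC50 values came from sigmoidal variable-slope fits of percent inhibition against log concentration.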

[1] = JAK2 kinase inhibition, 0.2 μM ATP
[2] = ALK kinase inhibition, 1 μM ATP

T2 sequence (Q9UM73 19-1620): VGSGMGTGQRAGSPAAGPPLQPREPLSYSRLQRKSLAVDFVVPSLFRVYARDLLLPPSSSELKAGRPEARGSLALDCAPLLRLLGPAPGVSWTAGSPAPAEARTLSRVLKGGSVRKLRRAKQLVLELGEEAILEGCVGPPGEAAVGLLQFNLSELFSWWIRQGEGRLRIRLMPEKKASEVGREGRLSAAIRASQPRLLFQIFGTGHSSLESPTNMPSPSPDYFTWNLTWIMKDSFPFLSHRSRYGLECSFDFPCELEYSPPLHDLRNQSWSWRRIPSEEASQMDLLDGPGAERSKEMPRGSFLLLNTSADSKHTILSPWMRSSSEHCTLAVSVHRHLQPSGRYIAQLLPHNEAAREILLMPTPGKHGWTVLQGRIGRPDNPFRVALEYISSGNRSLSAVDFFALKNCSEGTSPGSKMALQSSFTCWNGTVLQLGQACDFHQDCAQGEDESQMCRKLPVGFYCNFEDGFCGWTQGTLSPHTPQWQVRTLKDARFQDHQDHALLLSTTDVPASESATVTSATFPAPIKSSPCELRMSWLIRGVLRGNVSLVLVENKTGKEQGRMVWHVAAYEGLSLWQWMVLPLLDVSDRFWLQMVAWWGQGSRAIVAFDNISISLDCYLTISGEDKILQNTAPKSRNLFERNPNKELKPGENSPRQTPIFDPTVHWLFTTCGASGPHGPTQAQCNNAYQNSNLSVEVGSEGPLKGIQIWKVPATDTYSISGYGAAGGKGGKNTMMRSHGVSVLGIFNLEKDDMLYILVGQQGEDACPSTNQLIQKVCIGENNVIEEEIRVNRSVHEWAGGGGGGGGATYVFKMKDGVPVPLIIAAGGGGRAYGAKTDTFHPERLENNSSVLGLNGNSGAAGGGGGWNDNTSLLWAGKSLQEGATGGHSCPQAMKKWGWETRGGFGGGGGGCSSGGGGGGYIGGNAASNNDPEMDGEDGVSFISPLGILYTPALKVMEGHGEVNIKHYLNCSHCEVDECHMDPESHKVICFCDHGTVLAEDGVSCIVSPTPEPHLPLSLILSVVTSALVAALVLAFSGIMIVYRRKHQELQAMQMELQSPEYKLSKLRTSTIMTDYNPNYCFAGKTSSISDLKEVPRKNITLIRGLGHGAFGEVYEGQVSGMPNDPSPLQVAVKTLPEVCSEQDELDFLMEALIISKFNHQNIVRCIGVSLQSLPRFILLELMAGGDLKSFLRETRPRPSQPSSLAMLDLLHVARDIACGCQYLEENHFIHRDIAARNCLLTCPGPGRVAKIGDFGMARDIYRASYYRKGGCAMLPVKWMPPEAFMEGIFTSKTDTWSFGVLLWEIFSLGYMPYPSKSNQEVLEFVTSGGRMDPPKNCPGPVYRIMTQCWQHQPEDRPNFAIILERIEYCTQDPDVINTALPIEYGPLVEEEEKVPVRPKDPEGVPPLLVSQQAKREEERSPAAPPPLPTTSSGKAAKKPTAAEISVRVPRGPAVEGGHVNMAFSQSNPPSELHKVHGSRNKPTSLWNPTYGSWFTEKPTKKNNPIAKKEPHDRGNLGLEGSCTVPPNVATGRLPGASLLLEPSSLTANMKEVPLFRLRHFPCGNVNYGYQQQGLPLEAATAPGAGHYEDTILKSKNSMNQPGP
T1 sequence (O60674 whole entry): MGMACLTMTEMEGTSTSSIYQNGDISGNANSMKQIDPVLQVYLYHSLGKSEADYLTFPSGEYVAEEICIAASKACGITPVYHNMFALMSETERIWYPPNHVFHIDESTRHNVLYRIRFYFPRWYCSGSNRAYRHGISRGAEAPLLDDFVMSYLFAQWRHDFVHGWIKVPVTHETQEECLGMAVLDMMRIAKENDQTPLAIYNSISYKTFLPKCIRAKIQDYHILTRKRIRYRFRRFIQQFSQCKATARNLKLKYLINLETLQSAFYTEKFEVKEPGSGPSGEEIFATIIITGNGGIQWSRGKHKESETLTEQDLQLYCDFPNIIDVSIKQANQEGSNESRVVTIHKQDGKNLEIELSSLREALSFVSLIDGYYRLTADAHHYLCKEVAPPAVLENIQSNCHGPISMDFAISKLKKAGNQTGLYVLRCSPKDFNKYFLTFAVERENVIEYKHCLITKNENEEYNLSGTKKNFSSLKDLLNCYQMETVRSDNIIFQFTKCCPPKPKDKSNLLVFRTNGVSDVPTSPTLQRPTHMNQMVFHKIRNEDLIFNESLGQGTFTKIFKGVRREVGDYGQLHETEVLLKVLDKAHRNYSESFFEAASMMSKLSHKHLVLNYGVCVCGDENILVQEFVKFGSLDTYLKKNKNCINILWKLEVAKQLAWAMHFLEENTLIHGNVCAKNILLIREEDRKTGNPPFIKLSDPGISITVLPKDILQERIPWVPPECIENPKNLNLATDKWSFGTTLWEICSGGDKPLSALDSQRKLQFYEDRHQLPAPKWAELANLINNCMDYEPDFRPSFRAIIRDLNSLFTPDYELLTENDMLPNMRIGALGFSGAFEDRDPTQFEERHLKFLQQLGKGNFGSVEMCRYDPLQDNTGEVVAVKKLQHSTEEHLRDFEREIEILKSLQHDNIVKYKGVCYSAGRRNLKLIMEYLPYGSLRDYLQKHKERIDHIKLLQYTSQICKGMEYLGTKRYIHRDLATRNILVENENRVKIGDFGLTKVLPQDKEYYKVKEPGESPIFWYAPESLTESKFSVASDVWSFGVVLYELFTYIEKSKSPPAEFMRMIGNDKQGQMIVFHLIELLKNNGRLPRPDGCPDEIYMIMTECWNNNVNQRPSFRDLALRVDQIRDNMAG

Molecule	IC50 (JAK2; [1])	IC50 (ALK; [2])	IC50 (JAK2; JAK2 Kinase Inhibition)	IC50 (ALK; ALK Kinase Inhibition)
COc1ccccc1-c1ccc2cnc(Nc3ccc(C4CCN(C)CC4)c(C)c3)nn12 [Example 942, [7-(2-Methoxy-phenyl)-pyrrolo[2,1-f][1,2,4]triazin-2-yl]-[3-methyl-4-(1-methyl-piperidin-4-yl)-phenyl]-amine]	< 100 nM	< 100 nM		
COc1cc2c(cc1Nc1ncc3ccc(-c4ccccc4N(C)S(C)(=O)=O)n3n1)CN(C(=O)OC(C)(C)C)C2 [Example 875, 5-{7-[2-(Methanesulfonyl-methyl-amino)-phenyl]-pyrrolo[2,1-f][1,2,4]triazin-2-ylamino}-6-methoxy-1,3-dihydro-isoindole-2-carboxylic acid tert-butyl ester]	> 10000 nM	1000 to 10000 nM		
CN(C)CC(=O)Nc1cccc(Nc2ncc3ccc(-c4cccc(S(=O)(=O)NC(C)(C)C)c4)n3n2)c1 [Example 897, N-{3-[7-(3-tert-Butylsulfamoyl-phenyl)-pyrrolo[2,1-f][1,2,4]triazin-2-ylamino]-phenyl}-2-dimethylamino-acetamide]	< 100 nM	< 100 nM		
C=Cc1cc(-c2ccccc2OC)n2nc(Nc3ccc(N4CCN(C)CC4)cc3)ncc12 [Example 103, [7-(2-Methoxy-phenyl)-5-vinyl-pyrrolo[2,1-f][1,2,4]triazin-2-yl]-[4-(4-methyl-piperazin-1-yl)-phenyl]-amine]			< 100 nM	100 to 1000 nM
N-{2-[2-(3,3-Dimethyl-2-oxo-2,3-dihydro-1H-indol-6-ylmethyl)-pyrrolo[2,1-f][1,2,4]triazin-7-yl]-phenyl}-N-methyl-methanesulfonamide [Example 661]	< 100 nM	100 to 1000 nM		
COc1cc(C(=O)N2CCN(C)CC2)ccc1Nc1ncc2ccc(-c3ccccc3N(C)S(C)(=O)=O)n2n1 [Example 490, N-(2-{2-[2-Methoxy-4-(4-methyl-piperazine-1-carbonyl)-phenylamino]-pyrrolo[2,1-f][1,2,4]triazin-7-yl}-phenyl)-N-methyl-methanesulfonamide]	1000 to 10000 nM	100 to 1000 nM		
NC(=O)CN1CCC(c2ccc(Nc3ncc4ccc(-c5cccc6c5OCC6)n4n3)cc2)CC1 [Example 706, 2-(4-{4-[7-(2,3-Dihydro-benzofuran-7-yl)-pyrrolo[2,1-f][1,2,4]triazin-2-ylamino]-phenyl}-piperidin-1-yl)-acetamide]	< 100 nM	< 100 nM		
CNC(=O)c1cccc(Nc2ncc3ccc(-c4cnn(C)c4)n3n2)c1 [Example 965, N-Methyl-3-[7-(1-methyl-1H-pyrazol-4-yl)-pyrrolo[2,1-f][1,2,4]triazin-2-ylamino]-benzamide]	< 100 nM	1000 to 10000 nM		
COc1cc(N2CCC(N(C)C)CC2)ccc1Nc1ncc2ccc(-c3ccccc3N(C)S(C)(=O)=O)n2n1 [Example 475, N-(2-{2-[4-(4-Dimethylamino-piperidin-1-yl)-2-methoxy-phenylamino]-pyrrolo[2,1-f][1,2,4]triazin-7-yl}-phenyl)-N-methyl-methanesulfonamide]	100 to 1000 nM	< 100 nM		
COc1cc(N2CCC(N3CCN(C)CC3)CC2)ccc1Nc1ncc2ccc(-c3ccccc3S(=O)(=O)N(C)C)n2n1 [Example 532, 2-(2-{2-Methoxy-4-[4-(4-methyl-piperazin-1-yl)-piperidin-1-yl]-phenylamino}-pyrrolo[2,1-f][1,2,4]triazin-7-yl)-N,N-dimethyl-benzenesulfonamide]	1000 to 10000 nM	< 100 nM		
Cc1cc(Nc2ncc3ccc(-c4ccc(S(C)(=O)=O)cc4)n3n2)ccc1C1CCN(C)CC1 [Example 947, [7-(4-Methanesulfonyl-phenyl)-pyrrolo[2,1-f][1,2,4]triazin-2-yl]-[3-methyl-4-(1-methyl-piperidin-4-yl)-phenyl]-amine]	< 100 nM	< 100 nM		
N-{2-[2-(2-Oxo-2,3-dihydro-benzooxazol-6-ylamino)pyrrolo[2,1-f][1,2,4]triazin-7-yl]phenyl}methanesulfonamide [Example 629]	< 100 nM	100 to 1000 nM		

Further lines, results first:

IC50 (JAK2; [1])	IC50 (ALK; [2])	IC50 (JAK2; JAK2 Kinase Inhibition)	IC50 (ALK; ALK Kinase Inhibition)	Molecule
< 100 nM	1000 to 10000 nM			COc1ccccc1-c1ccc2cnc(Nc3ccc4cnn(CCN5CCOCC5)c4c3)nn12 [Example 1347, [7-(2-Methoxy-phenyl)-pyrrolo[2,1-f][1,2,4]triazin-2-yl]-[1-(2-morpholin-4-yl-ethyl)-1H-indazol-6-yl]-amine]
		< 100 nM	1000 to 10000 nM	CC(C)(C)NS(=O)(=O)c1cccc(-c2ccc3cnc(Nc4ccc(-c5cnco5)cc4)nn23)c1 [Example 1402, N-tert-Butyl-3-[2-(4-oxazol-5-yl-phenylamino)-pyrrolo[2,1-f][1,2,4]triazin-7-yl]-benzenesulfonamide]
		< 100 nM	< 100 nM	CN1CCN(c2cccc(Nc3ncc4ccc(-c5cccc(CO)c5)n4n3)c2)CC1 [Example 1557, (3-{2-[3-(4-Methyl-piperazin-1-yl)-phenylamino]-pyrrolo[2,1-f][1,2,4]triazin-7-yl}-phenyl)-methanol]
< 100 nM	100 to 1000 nM			COc1ccccc1-c1ccc2cnc(Nc3ccc4c(c3)CN(CC(N)=O)CC4)nn12 [Example 987, 2-{7-[7-(2-Methoxy-phenyl)-pyrrolo[2,1-f][1,2,4]triazin-2-ylamino]-3,4-dihydro-1H-isoquinolin-2-yl}-acetamide]
< 100 nM	100 to 1000 nM			CC(C)S(=O)(=O)c1cccc(-c2ccc3cnc(Nc4ccc(Cl)c(OC[C@H]5CCCN5)c4)nn23)c1 [Example 1016, [4-Chloro-3-((R)-1-pyrrolidin-2-ylmethoxy)-phenyl]-{7-[3-(propane-2-sulfonyl)-phenyl]-pyrrolo[2,1-f][1,2,4]triazin-2-yl}-amine]
		100 to 1000 nM	< 100 nM	COc1cc(N2CCN(C[C@H](C)O)CC2)c(F)cc1Nc1ncc2ccc(-c3ccccc3OC)n2n1 [Example 1480, (S)-1-(4-{2-Fluoro-5-methoxy-4-[7-(2-methoxy-phenyl)-pyrrolo[2,1-f][1,2,4]triazin-2-ylamino]-phenyl}-piperazin-1-yl)-propan-2-ol]
		100 to 1000 nM	100 to 1000 nM	COCCN(c1ccccc1-c1ccc2cnc(Nc3ccc(N4CCC(N5CCOCC5)CC4)cc3OC)nn12)S(C)(=O)=O [Example 1462, N-(2-Methoxy-ethyl)-N-(2-{2-[2-methoxy-4-(4-morpholin-4-yl-piperidin-1-yl)-phenylamino]-pyrrolo[2,1-f][1,2,4]triazin-7-yl}-phenyl)-methanesulfonamide]
		< 100 nM	100 to 1000 nM	COc1ccccc1-c1ccc2cnc(Nc3ccc(N4CCN(CC(N)=O)CC4)c(F)c3)nn12 [Example 1416, 2-(4-{2-Fluoro-4-[7-(2-methoxy-phenyl)-pyrrolo[2,1-f][1,2,4]triazin-2-ylamino]-phenyl}-piperazin-1-yl)-acetamide]
100 to 1000 nM	< 100 nM			COc1cc(CN2C[C@@H](O)[C@H](O)C2)ccc1Nc1ncc2ccc(-c3ccccc3OC)n2n1 [Example 1237, (3R,4R)-1-{3-Methoxy-4-[7-(2-methoxy-phenyl)-pyrrolo[2,1-f][1,2,4]triazin-2-ylamino]-benzyl}-pyrrolidine-3,4-diol]
< 100 nM	100 to 1000 nM			Cc1nc(-c2ccc3cnc(Nc4ccc(N5CCN(C)CC5)cc4)nn23)cn1C [Example 1042, [7-(1,2-Dimethyl-1H-imidazol-4-yl)-pyrrolo[2,1-f][1,2,4]triazin-2-yl]-[4-(4-methyl-piperazin-1-yl)-phenyl]-amine]
